Data set [1] is described as follows: HPLC retention time as rough estimate of hydrophobicity. Format: physicochemical. The settings on record: C-18 reversed phase, methanol/KH2PO4 gradient. Here is the method: Adsorption data were then obtained by HPLC analysis on the test and control samples. Specifically, a 200 μl sample volume of PC was removed from each tube following the incubation period (special care being taken to ensure that no adsorbent particles were removed with the test samples). […] The addition of methanol lyses platelets and precipitates plasma proteins so that psoralen contained within the platelets is not excluded by the assay.
Since each of the psoralens were analyzed using the same type of BPLC assay, one can use the psoralens' relative retention times to rank them according to increasing hydrophobicity. […] Strong interactions with cells or plasma proteins could compete with adsorption, thereby interfering with resin binding.

The next data set relates to Pseudomonas. Description: Bacterial inactivation, colony forming units. The data set is classed as cell-based. To be noted: 16 μM; 5 J/cm^2 irradiation; starting titer 6.5 logs. The protocol: The bacteria, a strain of Pseudomonas, was inoculated into LB with a sterile loop and grown overnight in a shaker at 37° C. Based on the approximation that one OD at 610 mn is equivalent to 5×10^8 colony forming units (cfu)/mL, a 1:10 dilution of the culture was measured on a spectrophotometer, (manufactured by Shimatsu). The bacterial culture was added to a solution of 15% fetal bovine serum in DMEM to a final bacteria concentration of approximately 10^6/mL. An aliquot (0.8 mL) was transferred to a 1.5 mL snap-top polyethylene tube. An aliquot (0.004-0.040 mL) of the test compound stock solution prepared in water, ethanol or dimethylsulfoxide at 0.80-8.0 mM was added to the tube. Compounds were tested at a concentration of 16 μM. The tubes were placed in a light device as described in EXAMPLE 1 and irradiated with 1.3 J/cm^2, 1.2 J/cm^2, and finally 2.5 J/cm^2, for a total of 5 J/cm^2. 150 μL were removed for testing after each pulse period. Sterile 13 mL dilution tubes were prepared; each test compound required one tube with 0.4 mL of LB broth and four tubes containing 0.5 mL of LB broth. […] The colony forming units were then counted the following morning and the titer of the phage remaining after phototreatment was calculated based on the dilution factors. […]

The test system of data set [2] is Salmonella typhimurium tester strains. Description: Ames Salmonella dark mutagenicity test, overall assessment. The data set is classed as cell-based. To be noted: two-fold or greater increase in revertants above background and dose dependence. The protocol: A brief description for each procedure is given here. […] TA97a, TA98, TA1537 and TA1538 are frameshift tester strains. TA100 and TA102 are base-substitution tester strains.
This served as the background controls.
For all experiments, the pre-incubation procedure was used.

Data set [3] concerns R17 bacteriophage. Description: R17 bacteriophage inactivation assay, varying compound concentration. The settings on record: 32 μM; starting titer approx. 7.5 logs; 1 minute irradiation. Format: cell-based. Here is the method: An r-17 bacteriophage assay was used in this example to predict pathogen inactivation efficiency and to determine nucleic acid binding of the photoreactive binding compounds of the present invention. In the r-17 assay, the bacteriophage was placed in a solution with each compound tested and was then irradiated. The ability of the phage to subsequently infect bacteria and inhibit their growth was measured. The bacteriophage was selected for its relatively accessible nucleic acid such that the culture growth inhibition would accurately reflect nucleic acid damage by the test compounds. The bacteriophage assay for nucleic acid binding to test compounds offers a safe and inexpensive procedure to identify compounds likely to display efficient pathogen inactivation.
The R17 was grown up in Hfr 3000 bacteria, approximate titer 5×10^11. (R17 and Hfr 3000 were obtained from American Tissue Culture Collection (ATCC), Washington, D.C.) The R17 phage stock was added to a solution of 15% fetal bovine serum in Dulbecco's Modified Eagles Medium (DMEM) to a final phage concentration of 10^9/mL. An aliquot (0.5 mL) was transferred to a 1.5 mL snap-top polyethylene tube. An aliquot (0.004-0.040 mL) of the test compound stock solution prepared in water, ethanol or dimethylsulfoxide at 0.80-8.0 mM was added to the tube. Compounds were tested at concentrations between 4 μM and 320 μM. […] The tubes were placed in a light device as described in EXAMPLE 1 and irradiated for between 1 and 10 minutes. Sterile 13 mL dilution tubes were prepared; each test compound required one tube with 0.4 mL of Luria broth (LB) and five tubes containing 0.5 mL of LB broth. To make the dilutions, a 0.100 mL aliquot of the irradiated solution of phage and test compound was added to the first dilution tube of 0.4 mL of media then 0.020 mL of this solution was added to the second tube of 0.5 mL medium (1:25). The second solution was then diluted serially (1:25) into the remaining tubes. To each diluted sample was added 0.050 mL of Hfr 3000 bacteria cultured overnight and 3 mL of molten LB top agar and the mixed materials were poured onto LB broth plates. After the top agar hardened, the plates were incubated at 37° C. overnight. The plaque forming units were then counted the following morning and the titer of the phage remaining after phototreatment was calculated based on the dilution factors.
The following controls were run: the “phage only” in which phage was not treated with test compound and not irradiated (listed as “starting titer” in the tables below); the “UV only” in which the phage was irradiated in the absence of test compound; and the “dark” control in which the phage/test compound solution was not irradiated before it was diluted and plated.

Data set [4] concerns R17 bacteriophage. Description: R17 bacteriophage inactivation at constant concentration, varying doses of UV light. Format: cell-based. The settings on record: 1.0-3.0 J/cm^2, FIGS. 11-17. The protocol:
Compounds of the present invention were also tested at a constant concentration for varying doses of UV light. Three sets of 1.5 mL tubes were prepared containing 0.6mL aliquots of R17 in DMEM (prepared as described above). The compound tested was added at the desired concentration and the samples were vortexed. The samples were then irradiated at intervals of 1.0 J/cm^2, until 3.0 J/cm^2 was reached. Between each 1.0 J/cm^2 interval, 100 μL was removed from each sample and placed in the first corresponding dilution tube, then five sequential dilutions were performed for each compound tested, at all 3 irradiation doses, as described above in this example.
Then 50 μL of Hfr 3000 bacteria was added to each tube, 3 mL of top agar was added and the tube contents were vortexed The contents of each tube was poured into its own LB plate and the plates were incubated overnight at 37° C. Plaques were counted by visual inspection the following morning.

The subject of another data set is HIV-1. To be noted: 1 minute irradiation, starting titer approximately 5.4 logs (Table 11).
The test system of a further data set is mouse reticulocytes. The settings on record: increased dose levels in male Balb/c mice. The protocol: Male Balb/c mice were then injected with 0.1 ml of a compound solution via the tail vein. At least 3 mice were injected per dose level. Saline only was used as a negative control. For a positive control, cyclophosphamide (cycloPP) was administered at a dose of 30 mg/kg. In the experimental group, the injections were repeated once per day for four days. In the positive control group, the sample was administered only once, on day three. On day 5, several microliters of blood were withdrawn from each subject and smeared on a glass slide. Cells were fixed in absolute methanol and stored in a slide rack.
For analysis, cells were stained with acridine orange and visualized under a fluorescence microscope by counting: (i) the number of reticulocytes per 5000 erythrocytes; and (ii) the number of micronucleated reticulocytes per 1000 reticulocytes. Reticulocytes were distinguished by their red fluorescence due to the presence of RNA. Micronuclei were distinguished by their green fluorescence due to the presence of DNA. The percentage of reticulocytes (%PCE) was then calculated. A decrease in the frequency of […] in the percentage of reticulocytes, is an indication of bone marrow toxicity. The percentage of reticulocytes with micronuclei (%PCE with MN) was also calculated. An increase in %PCE with MN is a measure of clastogenicity.
After initial results were determined, the experiment was repeated using increased dose levels, until: (i) Micronucleus formation was seen; or (ii) Bone marrow toxicity was observed; or (iii) The lethal dose was reached; or (iv) A dose of 5 g/kg was administered.

In another data set the test system is platelets. Description: Platelet count, Sysmex cell counter. Format: cell-based, human. To be noted: 100 μM compound, 5 Joules/cm^2, Day 5; FIGS. 21A-24A. Here is the method: Samples were diluted 1:3 in blood bank saline.
The next data set has as its system p-selectin (GMP140). Put plainly: GMP-140 (p-selectin) expression on platelets, flow cytometry with CD62. The data set is classed as cell-based, human. The settings on record: 100 μM compound, 5 Joules/cm^2, 5 days storage; FIGS. 21C-24C. Here is the method: To measure the effects of the present compounds and methods of decontamination on platelet function using these four indicators, four samples were prepared for each compound tested, two control samples and two containing compound. Three units of human platelets were obtained from the Sacramento Blood Center, Sacramento, Calif. These were each transferred under sterile conditions to 50 ml centrifuge tubes, then aliquots of each unit were transferred into a second set of 50 ml sterile centrifuge tubes. To each centrifuge tube containing platelet concentrate (PC), an aliquot of compound stock was added to reach a final concentration of 100 μM of compound. […] The samples were pipetted gently up and down to mix. Then aliquots (either 3 ml or 8 ml) of each sample was transferred to two sterile Teflon™ Medi-bags™ (American Fluoroseal Co., Silver Springs, Md.) (presently owned by The West Company, Lionville, Pa.). Samples were treated in one of two different sized bags, having either 3 ml or 8 ml capacity. […] For each compound tested, two control samples without compound were prepared by again removing aliquots of platelet concentrate (17 ml if using an 8 ml bag, […] if using a 3 ml bag) from the same one of the first set of 50 ml centrifuge tubes from which the compound sample was drawn, and dividing into Medibags, as before. One of each pair of Medibags containing a compound, and one of each pair of control Medibags, were illuminated for 5 Joules/cm^2 on the device described in Example 1, above. Then all experimental and control Medibags were placed on a platelet shaker for storage for 5 days. The same experiments were repeated several times to obtain more statistically meaningful data, as represented by “n”, the number of data points represented, in the graphs of FIGS. 21-24, discussed below.
(Flow cytometry measures light scatter and fluorescence of single cells or particles in a stream.)

The text below walks through data of patent publication US6544727B1, “Methods and devices for the removal of psoralens from blood products” (Cerus Corporation, priority 1995, dated 2003).

SMILES strings stand for the structures. Like-named read-outs stand apart in the source and are kept apart here.

Description for HIV-1: As in the R17 assay, small aliquots of the compounds listed in TABLES 10 and 11, below, at the concentrations listed in the table, were added to stock HIV-1 to a total of 0.5 mL. The stock HIV (10^5−10^7 plaque forming units/mL) was in DMEM15% FBS. […] Controls included HIV-1 stock only, HIV-1 plus UVA only, and HIV-1 plus the highest concentration of each psoralen tested, with no UVA. Post irradiation, all samples were store frozen at −70° C. until assayed for infectivity by a microtiter plaque assay. Aliquots for measurement of residual HIV infectivity in the samples treated with a compound of the present invention were withdrawn and cultured.
Residual HIV infectivity was assayed using an MT-2 infectivity assay. […] The assay medium was 85% DMEM (with a high glucose concentration) containing 100 μg of streptomycin, 100 U of penicillin, 50 μg of gentamicin, and 1 μg of amphotericin B per mL, 15% FBS and 2 μg of Polybrene (Sigma Chemical Co., St. Louis, Mo.) per mL. Test and control samples from the inactivation procedure were diluted in 50% assay medium and 50% normal human pooled plasma The samples were serially diluted directly in 96-well plates (Corning Glass Works, Corning, N.Y.). The plates were mixed on an oscillatory shaker for 30 seconds and incubated at 37° C. in a 5% CO2 atmosphere for 1 to 18 hours. […] After an additional 1 hour of incubation at 37° C. in 5% CO2, 0.075 mL of assay medium containing 1.6% SeaPlaque agarose (FMC Bioproducts, Rockland, Me.) and prewarmed to 38.5° C. was added to each well. The plates were kept at 37° C. for a few minutes until several plates had accumulated and then centrifuged in plate carriers at 600×g for 20 minutes in a centrifuge precooled to 10° C. In the centrifuge, cell monolayers formed prior to gelling of the agarose layer. The plates were incubated for 5 days at 37° C. in 5% CO2 and stained by the addition of 0.05 mL of 50 μg/mL propidium iodide (Sigma Chemical Co.) in phosphate-buffered saline (pH 7.4) to each well. After 24 to 48 hours, the red fluorescence-stained microplaques were visualized by placing the plates on an 8,000 μW/cm^2304 nm UV light box (Fotodyne, Inc., New Berlin, Wis.). The plaques were counted at a magnification of x20 to x25 through a stereomicroscope.

For `COc1c2occc2c(Br)c2ccc(=O)oc12` [Psoralen B, 5-bromo-8-methoxypsoralen], in data set [1], the “HPLC retention time (rough estimate of hydrophobicity)” value is reported as 20.0 min.

For `COc1c2occc2cc2ccc(=O)oc12` [Compound 8-MOP, 8-Methoxypsoralen, reference compound], the “log kill of Pseudomonas” value with Pseudomonas was 1.9 logs. Moreover, the “mutagenic response in the Ames assay (in words)” value in data set [2] is recorded as “weak base-substitution mutagen in TA102 at 500 μg/plate”. In the data set on R17 bacteriophage [3], the “R17 log kill (32 μM)” value is listed as 0 log.

As to `Cc1oc2c(C)c3oc(=O)cc(C)c3cc2c1CNCCCNCCCN` [Compound 12, 4′-(9-amino-2,6-diaza)nonyl-4,5′,8-trimethylpsoralen], in the data set on R17 bacteriophage [4], the “R17 inactivation efficiency compared with AMT (in words)” value is listed as “more efficient at inactivating R17 than was AMT”. The entries for the “HIV Log Kill” value in the data set on HIV-1 (16 μM), in the data set with HIV-1 (32 μM) and in the data set on HIV-1 (64 μM) were 0.4 log, 0.8 log and 1.3 log, respectively.

As for `CC[N+](CC)(CC)Cc1c(C)oc2c(C)c3oc(=O)cc(C)c3cc12` [Psoralen A, 4′-(triethylamino) methyl-4,5′,8-trimethylpsoralen], in data set [1], the “HPLC retention time (rough estimate of hydrophobicity)” value is 7.8 min.

As to `Cc1cc(=O)oc2c(C)c3oc(CNCCCCN)c(C)c3cc12` [Compound 17, 5′-(6-amino-2-aza)hexyl-4,4′,8-trimethylpsoralen], in the data set on R17 bacteriophage [4], the “R17 inactivation efficiency compared with AMT (in words)” value is recorded as “more efficient at inactivating R17 than was AMT”. In addition, the “bone marrow toxicity and micronucleus formation on dose escalation (in words)” value with mouse reticulocytes is listed as “the acutely lethal dose was reached before there were any signs of bone marrow toxicity or micronucleus formation”. Moreover, the “platelet count, treated against controls (in words)” value in the data set on platelets is reported as “higher platelet count than samples treated with light alone”. Moreover, the “GMP-140 expression, treated sample (PCD) against day 5 untreated control (in words)” value in the data set with p-selectin (GMP140) is listed as “little or no difference”. Moreover, the results for the “HIV Log Kill” value in the data set with HIV-1 (16 μM), in the data set on HIV-1 (32 μM) and in the data set with HIV-1 (64 μM) were 1.2 log, 2.9 log and 3.4 log, respectively.

Regarding `Cc1oc2c(C)c3oc(=O)cc(C)c3cc2c1CNCCCCCN` [Compound 10, 4′-(7-amino-2-aza)heptyl-4,5′,8-trimethylpsoralen], the “R17 inactivation efficiency compared with AMT (in words)” value in the data set on R17 bacteriophage [4] is listed as “more efficient at inactivating R17 than was AMT”. Besides, the results for the “HIV Log Kill” value with HIV-1 (16 μM), in the data set with HIV-1 (32 μM) and with HIV-1 (64 μM) were 2.0 log, more than 3.5 log and more than 3.5 log, respectively.
